Results published in the supplement of paper PMC10307832.

What was measured:
Assay in all cases: relative viability (nuclei count vs DMSO), 5 days (fraction); higher = more cells survive
[1] = compound: NCC(=O)Nc1ccc(-n2nc(C(F)(F)F)cc2-c2ccc3c(ccc4ccccc43)c2)cc1 + O=C(CCCCCCC(=O)Nc1ccccc1)NO [Vorinostat] (partner 1 µM)
In short: (§1)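 After 5 days of treatment, lung cancer cells in 1536-well plates were fixed and stained in a single step (final 0.05% Triton X-100, 1% formaldehyde, 1 ug/ml Hoechst) and their nuclei counted on 4× images. Treatment had been applied by pin tool the day after seeding as one drug alone or as a fixed anchor-drug dose with five library-drug doses (not always all listed) in √10 steps. Relative viability is the nuclei count of treated wells divided by that of vehicle wells, and values are medians of duplicate plates.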

[2] = compound: C1CSC2=C(C(=O)N1)SC3=C2C=C(C=C3)O [kb NB 142-70] + CC(=O)c1c(C)c2cnc(Nc3ccc(N4CCNCC4)cn3)nc2n(C2CCCC2)c1=O [Palbociclib] (partner 0.5 µM)
In short: as §1

[3] = compound: NCC(=O)Nc1ccc(-n2nc(C(F)(F)F)cc2-c2ccc3c(ccc4ccccc43)c2)cc1 + CC(C)C[C@H](NC(=O)[C@H](Cc1ccccc1)NC(=O)c1cnccn1)B(O)O [Bortezomib] (partner 0.002 µM)
In short: as §1

[4] = compound: C1CSC2=C(C(=O)N1)SC3=C2C=C(C=C3)O [kb NB 142-70] + C[C@@H](Oc1cc(-c2cnn(C3CCNCC3)c2)cnc1N)c1c(Cl)ccc(F)c1Cl [Crizotinib] (partner 1 µM)
In short: as §1

NCI-H650
relative viability ([1]; first compound 0.02 µM): 0.469 | relative viability ([1]; first compound 0.06325 µM): 0.424 | relative viability ([1]; first compound 0.2 µM): 1.29 | relative viability ([1]; first compound 0.6325 µM): 0.369 | relative viability ([1]; first compound 2 µM): 0.361 | relative viability ([2]; first compound 0.1 µM): 0.362 | relative viability ([2]; first compound 1 µM): 0.422 | relative viability ([2]; first compound 3.162 µM): 0.394 | relative viability ([3]; first compound 0.02 µM): 0.663 | relative viability ([3]; first compound 0.06325 µM): 1.02 | relative viability ([3]; first compound 0.2 µM): 0.931 | relative viability ([3]; first compound 0.6325 µM): 0.677 | relative viability ([3]; first compound 2 µM): 0.907 | relative viability ([4]; first compound 0.1 µM): 0.715 | relative viability ([4]; first compound 1 µM): 0.683 | relative viability ([4]; first compound 3.162 µM): 0.449

NCI-H661
relative viability ([1]; first compound 0.02 µM): 0.811 | relative viability ([1]; first compound 0.06325 µM): 0.817 | relative viability ([1]; first compound 0.2 µM): 0.774 | relative viability ([1]; first compound 0.6325 µM): 0.821 | relative viability ([1]; first compound 2 µM): 0.784 | relative viability ([2]; first compound 0.1 µM): 0.379 | relative viability ([2]; first compound 1 µM): 0.363 | relative viability ([2]; first compound 3.162 µM): 0.342 | relative viability ([3]; first compound 0.02 µM): 0.785 | relative viability ([3]; first compound 0.06325 µM): 0.853 | relative viability ([3]; first compound 0.2 µM): 0.737 | relative viability ([3]; first compound 0.6325 µM): 0.784 | relative viability ([3]; first compound 2 µM): 0.762 | relative viability ([4]; first compound 0.1 µM): 1.05 | relative viability ([4]; first compound 1 µM): 0.969 | relative viability ([4]; first compound 3.162 µM): 1.22

NCI-H727
relative viability ([1]; first compound 0.02 µM): 1.28 | relative viability ([1]; first compound 0.06325 µM): 0.908 | relative viability ([1]; first compound 0.2 µM): 1.28 | relative viability ([1]; first compound 0.6325 µM): 1.21 | relative viability ([1]; first compound 2 µM): 1.05 | relative viability ([2]; first compound 0.1 µM): 0.681 | relative viability ([2]; first compound 1 µM): 0.653 | relative viability ([2]; first compound 3.162 µM): 0.678 | relative viability ([3]; first compound 0.02 µM): 0.849 | relative viability ([3]; first compound 0.06325 µM): 0.977 | relative viability ([3]; first compound 0.2 µM): 0.724 | relative viability ([3]; first compound 0.6325 µM): 0.847 | relative viability ([3]; first compound 2 µM): 1.04 | relative viability ([4]; first compound 0.1 µM): 0.752 | relative viability ([4]; first compound 1 µM): 1.06 | relative viability ([4]; first compound 3.162 µM): 0.592

NCI-H838
relative viability ([1]; first compound 0.02 µM): 0.772 | relative viability ([1]; first compound 0.06325 µM): 0.708 | relative viability ([1]; first compound 0.2 µM): 0.857 | relative viability ([1]; first compound 0.6325 µM): 0.681 | relative viability ([1]; first compound 2 µM): 0.728 | relative viability ([2]; first compound 0.1 µM): 0.203 | relative viability ([2]; first compound 1 µM): 0.219 | relative viability ([2]; first compound 3.162 µM): 0.188 | relative viability ([3]; first compound 0.02 µM): 0.81 | relative viability ([3]; first compound 0.06325 µM): 0.788 | relative viability ([3]; first compound 0.2 µM): 1.06 | relative viability ([3]; first compound 0.6325 µM): 0.746 | relative viability ([3]; first compound 2 µM): 0.727 | relative viability ([4]; first compound 0.1 µM): 0.782 | relative viability ([4]; first compound 1 µM): 0.914 | relative viability ([4]; first compound 3.162 µM): 0.877

NCI-H1355
relative viability ([1]; first compound 0.02 µM): 0.636 | relative viability ([1]; first compound 0.06325 µM): 0.709 | relative viability ([1]; first compound 0.2 µM): 0.676 | relative viability ([1]; first compound 0.6325 µM): 0.655 | relative viability ([1]; first compound 2 µM): 0.653 | relative viability ([2]; first compound 0.1 µM): 0.417 | relative viability ([2]; first compound 1 µM): 0.39 | relative viability ([2]; first compound 3.162 µM): 0.404 | relative viability ([3]; first compound 0.02 µM): 1.22 | relative viability ([3]; first compound 0.06325 µM): 1.28 | relative viability ([3]; first compound 0.2 µM): 1.15 | relative viability ([3]; first compound 0.6325 µM): 1.19 | relative viability ([3]; first compound 2 µM): 1.29 | relative viability ([4]; first compound 0.1 µM): 1.02 | relative viability ([4]; first compound 1 µM): 1.03 | relative viability ([4]; first compound 3.162 µM): 1.05
